Like-named read-outs stand apart in the source and are kept apart here.
How the values were obtained:
PI3Kδ = target: T1, PI3Kδ (Homo sapiens, UniProt O00329); test: Enzyme binding assay (KINOMEscan, DiscoveRx); conditions: PIK3Cδ_h
T1 construct: purchased DiscoveRx Corporation, San Diego (contract service, KINOMEscan)
T1 sequence (O00329 1-1044): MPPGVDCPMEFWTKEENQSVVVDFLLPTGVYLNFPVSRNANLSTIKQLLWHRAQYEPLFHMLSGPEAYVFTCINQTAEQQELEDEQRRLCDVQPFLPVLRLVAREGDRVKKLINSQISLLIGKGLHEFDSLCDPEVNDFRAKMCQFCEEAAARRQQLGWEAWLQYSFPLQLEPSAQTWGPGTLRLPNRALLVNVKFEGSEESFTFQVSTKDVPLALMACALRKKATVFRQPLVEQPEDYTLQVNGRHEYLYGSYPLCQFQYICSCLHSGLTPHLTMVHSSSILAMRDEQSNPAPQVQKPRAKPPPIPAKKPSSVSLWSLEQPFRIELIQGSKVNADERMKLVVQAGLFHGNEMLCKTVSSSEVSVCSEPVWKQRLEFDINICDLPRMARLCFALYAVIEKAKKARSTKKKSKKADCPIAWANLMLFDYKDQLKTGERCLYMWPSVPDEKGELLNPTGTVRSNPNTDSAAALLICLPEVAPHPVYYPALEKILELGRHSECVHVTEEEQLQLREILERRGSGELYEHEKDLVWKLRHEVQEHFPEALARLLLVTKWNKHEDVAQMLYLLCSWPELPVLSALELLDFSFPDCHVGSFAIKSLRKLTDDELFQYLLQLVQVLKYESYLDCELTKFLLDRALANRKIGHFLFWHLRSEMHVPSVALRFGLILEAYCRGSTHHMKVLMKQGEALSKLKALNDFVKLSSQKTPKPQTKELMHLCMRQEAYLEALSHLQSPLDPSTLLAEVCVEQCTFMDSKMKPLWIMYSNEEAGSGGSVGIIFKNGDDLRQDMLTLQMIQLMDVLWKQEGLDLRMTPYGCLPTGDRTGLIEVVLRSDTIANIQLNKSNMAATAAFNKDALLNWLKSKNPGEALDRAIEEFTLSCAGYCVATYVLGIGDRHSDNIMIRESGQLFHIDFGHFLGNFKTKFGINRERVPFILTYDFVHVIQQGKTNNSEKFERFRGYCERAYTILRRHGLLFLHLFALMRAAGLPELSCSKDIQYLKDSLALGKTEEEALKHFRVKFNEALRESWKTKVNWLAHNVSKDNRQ
Procedure, shortened: (§1)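 Compounds were profiled by KINOMEscan to obtain kinase binding affinities.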

[1] = test system: Akt phosphorylated at Ser473 in PC-3 cells; test: Cellular assay: phosphorylation of Akt at Ser473 in PC-3 cells (MSD ELISA); type: cell-based; conditions: PC-3 cells, 60 min compound incubation, MSD ELISA, read-out: IC50 pAkt_S473
Procedure, shortened: (§2)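 After lysis of treated cells (60 min, 37° C, 0.3% DMSO), phospho-Akt levels were measured by MSD electrochemiluminescence ELISA. Potency was derived from concentration-response curves fitted over five concentrations.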

[2] = test system: Akt phosphorylated at Thr308 in PC-3 cells; test: Cellular assay: phosphorylation of Akt at Thr308 in PC-3 cells (MSD ELISA); type: cell-based; conditions: PC-3 cells, 60 min compound incubation, MSD ELISA, read-out: IC50 pAkt_Thr308
Procedure, shortened: as §2

PI3Kβ = target: T2, PI3Kβ (Homo sapiens, UniProt P42338); test: Enzyme binding assay (KINOMEscan, DiscoveRx); conditions: PIK3Cβ_h, read-out: Kd PIK3Cβ_h
T2 construct: purchased DiscoveRx Corporation, San Diego (contract service, KINOMEscan)
Procedure, shortened: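 Compounds are profiled for binding to the kinase using KINOMEscan. The affinity is then reported as an inhibitor Kd in nanomolar units.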

kinase enzymes [3] = target: T3, kinase enzymes (Homo sapiens, UniProt P48736); test: Enzyme binding assay (KINOMEscan, DiscoveRx), further kinases of Table A; conditions: PIK3Cγ_h
T3 construct: purchased DiscoveRx Corporation, San Diego (contract service, KINOMEscan)
Procedure, shortened: as §1

kinase enzymes [4] = target: T4, kinase enzymes (Homo sapiens, UniProt P42336); test: as above; conditions: PIK3Cα_h
T4 construct: purchased DiscoveRx Corporation, San Diego (contract service, KINOMEscan)
Procedure, shortened: as §1

kinase enzymes [5] = target: T5, kinase enzymes (Homo sapiens, UniProt P42345); test: as above; conditions: MTOR_h
T5 construct: purchased DiscoveRx Corporation, San Diego (contract service, KINOMEscan)
Procedure, shortened: as §1

T2 sequence (P42338 whole entry): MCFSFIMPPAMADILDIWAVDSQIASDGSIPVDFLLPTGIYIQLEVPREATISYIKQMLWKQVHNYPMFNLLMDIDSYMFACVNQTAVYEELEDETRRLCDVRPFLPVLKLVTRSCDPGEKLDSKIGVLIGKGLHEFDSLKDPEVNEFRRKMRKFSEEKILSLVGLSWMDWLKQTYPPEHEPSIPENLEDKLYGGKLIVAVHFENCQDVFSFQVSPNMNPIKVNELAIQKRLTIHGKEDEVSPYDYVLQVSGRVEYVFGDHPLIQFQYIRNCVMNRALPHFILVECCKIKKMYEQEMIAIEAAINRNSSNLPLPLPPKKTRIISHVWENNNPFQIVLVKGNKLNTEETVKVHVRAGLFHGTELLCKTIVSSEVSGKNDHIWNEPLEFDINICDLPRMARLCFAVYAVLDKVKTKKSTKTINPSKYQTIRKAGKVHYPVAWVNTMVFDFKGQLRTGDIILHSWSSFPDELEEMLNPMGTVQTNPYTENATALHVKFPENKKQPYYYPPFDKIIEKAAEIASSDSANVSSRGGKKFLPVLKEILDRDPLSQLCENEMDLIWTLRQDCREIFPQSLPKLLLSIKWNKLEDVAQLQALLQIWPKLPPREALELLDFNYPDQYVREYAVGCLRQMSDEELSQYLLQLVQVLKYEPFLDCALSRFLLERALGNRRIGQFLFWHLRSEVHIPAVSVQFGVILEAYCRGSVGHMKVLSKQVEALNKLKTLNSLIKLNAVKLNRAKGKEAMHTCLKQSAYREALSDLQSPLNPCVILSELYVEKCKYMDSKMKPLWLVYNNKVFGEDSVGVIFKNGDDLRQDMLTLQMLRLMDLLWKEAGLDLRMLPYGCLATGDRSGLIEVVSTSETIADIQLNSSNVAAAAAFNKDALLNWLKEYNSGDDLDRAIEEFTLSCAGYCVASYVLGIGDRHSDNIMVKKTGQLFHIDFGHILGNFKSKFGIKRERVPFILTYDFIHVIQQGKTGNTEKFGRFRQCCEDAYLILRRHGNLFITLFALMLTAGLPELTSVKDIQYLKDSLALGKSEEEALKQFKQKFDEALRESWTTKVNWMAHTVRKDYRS
T4 sequence (P42336 whole entry): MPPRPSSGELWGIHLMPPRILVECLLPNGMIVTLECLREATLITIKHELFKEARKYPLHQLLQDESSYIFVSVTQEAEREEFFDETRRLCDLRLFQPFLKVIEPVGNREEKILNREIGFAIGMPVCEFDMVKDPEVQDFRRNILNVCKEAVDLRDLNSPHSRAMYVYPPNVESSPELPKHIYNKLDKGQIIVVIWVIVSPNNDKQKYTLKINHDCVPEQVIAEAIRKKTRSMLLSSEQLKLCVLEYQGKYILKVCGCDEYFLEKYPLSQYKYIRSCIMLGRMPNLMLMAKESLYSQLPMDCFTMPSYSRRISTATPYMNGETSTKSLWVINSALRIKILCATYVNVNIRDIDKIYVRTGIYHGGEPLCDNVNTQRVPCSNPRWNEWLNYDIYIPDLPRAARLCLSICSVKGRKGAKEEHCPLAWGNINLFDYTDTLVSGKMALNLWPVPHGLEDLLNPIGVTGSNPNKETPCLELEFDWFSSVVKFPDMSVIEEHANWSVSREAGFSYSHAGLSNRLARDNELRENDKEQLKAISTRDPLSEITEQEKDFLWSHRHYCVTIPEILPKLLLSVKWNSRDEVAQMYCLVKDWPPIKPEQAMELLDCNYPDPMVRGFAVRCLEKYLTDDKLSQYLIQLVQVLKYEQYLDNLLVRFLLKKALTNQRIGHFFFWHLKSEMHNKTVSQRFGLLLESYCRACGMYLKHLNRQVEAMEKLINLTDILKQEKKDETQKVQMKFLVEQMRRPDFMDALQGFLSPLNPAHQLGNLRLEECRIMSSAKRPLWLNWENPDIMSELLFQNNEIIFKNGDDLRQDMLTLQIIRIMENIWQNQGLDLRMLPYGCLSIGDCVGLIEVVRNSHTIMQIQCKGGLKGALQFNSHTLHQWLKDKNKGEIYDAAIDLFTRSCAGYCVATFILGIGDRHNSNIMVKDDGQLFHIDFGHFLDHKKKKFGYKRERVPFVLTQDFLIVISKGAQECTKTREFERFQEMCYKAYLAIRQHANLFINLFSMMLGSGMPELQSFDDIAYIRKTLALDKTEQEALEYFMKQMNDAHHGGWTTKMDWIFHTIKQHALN
T3 sequence (P48736 whole entry): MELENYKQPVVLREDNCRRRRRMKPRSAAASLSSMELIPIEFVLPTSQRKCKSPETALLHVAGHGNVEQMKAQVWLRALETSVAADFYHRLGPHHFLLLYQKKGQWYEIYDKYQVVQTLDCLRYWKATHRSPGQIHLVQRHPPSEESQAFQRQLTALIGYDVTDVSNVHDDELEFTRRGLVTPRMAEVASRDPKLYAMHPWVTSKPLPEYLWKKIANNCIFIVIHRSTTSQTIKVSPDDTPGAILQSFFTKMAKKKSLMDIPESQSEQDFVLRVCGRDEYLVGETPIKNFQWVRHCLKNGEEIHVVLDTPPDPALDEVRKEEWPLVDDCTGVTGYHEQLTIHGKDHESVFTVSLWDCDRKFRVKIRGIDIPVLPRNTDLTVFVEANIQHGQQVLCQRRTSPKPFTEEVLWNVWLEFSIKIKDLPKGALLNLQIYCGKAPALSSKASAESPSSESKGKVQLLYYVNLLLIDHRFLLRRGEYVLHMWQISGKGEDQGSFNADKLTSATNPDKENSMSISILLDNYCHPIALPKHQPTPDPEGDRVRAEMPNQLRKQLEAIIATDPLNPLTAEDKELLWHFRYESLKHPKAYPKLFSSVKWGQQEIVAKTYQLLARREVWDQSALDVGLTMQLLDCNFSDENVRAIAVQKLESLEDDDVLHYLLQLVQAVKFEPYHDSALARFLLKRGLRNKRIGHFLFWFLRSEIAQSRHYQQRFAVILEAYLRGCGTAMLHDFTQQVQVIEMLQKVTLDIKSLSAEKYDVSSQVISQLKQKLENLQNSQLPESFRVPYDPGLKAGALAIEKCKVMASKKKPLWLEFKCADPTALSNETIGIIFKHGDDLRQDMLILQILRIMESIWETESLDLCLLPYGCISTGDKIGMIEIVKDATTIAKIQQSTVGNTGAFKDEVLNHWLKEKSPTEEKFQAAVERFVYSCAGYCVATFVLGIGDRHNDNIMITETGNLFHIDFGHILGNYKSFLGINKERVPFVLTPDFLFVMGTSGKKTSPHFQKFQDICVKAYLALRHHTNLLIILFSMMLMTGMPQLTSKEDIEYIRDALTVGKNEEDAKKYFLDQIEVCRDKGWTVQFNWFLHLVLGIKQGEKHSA

Row | Structure (SMILES) | Kd (PI3Kδ) [nM] | IC50 ([1]; Homo sapiens, PC-3, 1 h) [nM] | IC50 ([2]; Homo sapiens, PC-3, 1 h) [nM] | Kd (PI3Kβ) [nM] | Kd (kinase enzymes [3]) [nM] | Kd (kinase enzymes [4]) [nM] | Kd (kinase enzymes [5]) [nM] | IC50 [1] [nM] | IC50 [2] [nM]
1 | CC(Nc1cc(F)cc(F)c1)c1cc(C(=O)NC[C@H](C)O)cc2ncc(N3CCOCC3)nc12 (single isomer, unassigned) [Compound 246a] | 3890 | 44 | 24 | 4 | 6760 | 813 | 26900 |  | 
2 | COC(=O)c1cc(C2CCCN2c2cc(F)cc(F)c2)c2nc(N3CCOCC3)cnc2c1 (single isomer, unassigned) [Compound 252] | > 30200 |  |  | > 30200 | > 30200 | > 30200 | > 30200 | > 513 | > 513
3 | CC(Oc1cccc(F)c1)c1cc(C(=O)O)cc2ncc(N3CCOCC3)nc12 (single isomer, unassigned) [Compound 257b] | 468 | > 513 | > 513 | 22 | 3090 | 851 | 2820 |  | 
4 | CC(Oc1cccc(F)c1)c1cc(C(=O)O)cc2ncc(N3CCOCC3)nc12 (single isomer, unassigned) [Compound 257c] | 3020 |  |  | 603 | 3160 | 1700 | 1660 | > 513 | > 513
5 | CC(Nc1ccc(F)c(F)c1)c1cc(C(=O)NCCCO)cc2ncc(N3CCOCC3)nc12 (single isomer, unassigned) [Compound 280b] | 21400 |  |  | 813 | 24500 | 22400 | > 30200 | > 513 | > 513
6 | CC(Nc1ccc(F)c(F)c1)c1cc(C(=O)NCCN(C)C)cc2ncc(N3CCOCC3)nc12 (single isomer, unassigned) [Compound 281b] | 3470 |  |  | 151 | 7410 | 6170 | > 30200 | > 513 | > 513
7 | CC(C)NCCNC(=O)c1cc(C(C)Oc2ccc(F)c(F)c2)c2nc(N3CCOCC3)cnc2c1 (single isomer, unassigned) [Compound 286a] | 5750 |  |  | 182 | > 30200 | 10200 | 25700 | > 513 | > 513
8 | CC(Nc1ccc(F)c(F)c1)c1cc(C(=O)N2CCN3CCC[C@H]3C2)cc2ncc(N3CCOCC3)nc12 (single isomer, unassigned) [Compound 287a] | 234 |  |  | 3 | 20900 | 1740 | > 30200 | 31 | 34
9 | CC(Nc1cc(F)c(F)c(F)c1)c1cc(C(=O)NCC(C)(C)O)cc2ncc(N3CCOCC3)nc12 (single isomer, unassigned) [Compound 292b] | > 30200 |  |  | 14800 | > 30200 | > 30200 | > 30200 | > 513 | > 513
10 | Cc1ccc(NC(C)c2cc(C(=O)NCCO)cc3ncc(N4CCOCC4)nc23)cc1F (single isomer, unassigned) [Compound 295a] | 6760 |  |  | 288 | > 30200 | 6460 | 14500 | > 513 | > 513
11 | CC(Nc1cc(F)c(F)c(F)c1)c1cc(C(=O)N(C)C2CCNC2)cc2ncc(N3CCOCC3)nc12 (single isomer, unassigned) [Compound 296a] | 170 |  |  | 1 | 3240 | 1380 | > 30200 | 23 | 16
12 | CC(Nc1cc(F)c(F)c(F)c1)c1cc(C(=O)N(C)C2CCNC2)cc2ncc(N3CCOCC3)nc12 (single isomer, unassigned) [Compound 296b] | 9330 |  |  | 14 | > 30200 | > 30200 | > 30200 | 468 | 339
13 | CN[C@H]1CCN(C(=O)c2cc(C(C)Nc3cc(F)c(F)c(F)c3)c3nc(N4CCOCC4)cnc3c2)C1 (single isomer, unassigned) [Compound 297a] | 6310 |  |  | 26 | 15100 | 17000 | > 30200 | 200 | 204
14 | CN[C@H]1CCN(C(=O)c2cc(C(C)Nc3cc(F)c(F)c(F)c3)c3nc(N4CCOCC4)cnc3c2)C1 (single isomer, unassigned) [Compound 297b] | 112 |  |  | 0.5 | 1480 | 1020 | > 30200 | 7 | 3
15 | CC(Oc1ccc(F)c(F)c1)c1cc(C(=O)N2CC[C@@H](N(C)C)C2)cc2ncc(N3CCOCC3)nc12 (single isomer, unassigned) [Compound 298b] | 10200 |  |  | 186 | > 30200 | 24000 | > 30200 | 501 | > 513
16 | CC(Oc1ccc(F)c(F)c1)c1cc(C(=O)NCCN(C)C)cc2ncc(N3CCOCC3)nc12 (single isomer, unassigned) [Compound 299a] | 269 |  |  | 1 | 11000 | 6310 | > 30200 | ~45 | 56
17 | CC(Nc1ccc(F)c(F)c1)c1cc(C(=O)N2CCC[C@H](O)C2)cc2ncc(N3CCOCC3)nc12 (single isomer, unassigned) [Compound 302b] | 186 |  |  | 3 | 11700 | 1100 | > 30200 | 54 | 39
18 | CC(Nc1cc(F)c(F)c(F)c1)c1cc(C(=O)NCCN(C)C)cc2ncc(N3CCOCC3)nc12 (single isomer, unassigned) [Compound 309a] | 59 |  |  | 0.1 | 1740 | 1100 | 20000 | 9 | 8
19 | CC(Nc1cc(F)c(F)c(F)c1)c1cc(C(=O)NCCN(C)C)cc2ncc(N3CCOCC3)nc12 (single isomer, unassigned) [Compound 309b] | 2340 |  |  | 18 | 5620 | 4900 | > 30200 | 363 | 282
20 | CC(C)NCCNC(=O)c1cc(C(C)Nc2ccc(Cl)c(F)c2)c2nc(N3CCOCC3)cnc2c1 (single isomer, unassigned) [Compound 312a] | 10000 | > 513 | > 513 | 1150 | > 30200 | 15500 | > 10000 |  | 
21 | CC(C)NCCNC(=O)c1cc(C(C)Nc2ccc(Cl)c(F)c2)c2nc(N3CCOCC3)cnc2c1 (single isomer, unassigned) [Compound 312b] | 1860 |  |  | 26 | 28200 | 5130 | 20000 | > 513 | > 513
22 | CC(Oc1ccc(Cl)c(F)c1)c1cc(C(=O)N(C)CCN(C)C)cc2ncc(N3CCOCC3)nc12 (single isomer, unassigned) [Compound 313a] | 851 | 257 |  | 3 | 26300 | 5010 | > 30200 |  | 166
